In the experiment the target is T1, A2AR (hADORA2A-HEK293 cells) (Homo sapiens, UniProt P29274).
T1 construct: expressed in transfected cells; host or cells: HEK293 (hADORA2A-HEK293)
Description: functional cAMP production assay (NECA-stimulated cAMP production, TR-FRET). In kind it is cell-based. Particulars: inhibition of NECA (EC80)-stimulated cAMP production in A2AR-expressing HEK293 cells; read-out: A2AR Potency. The method, then: The antagonistic activities of the triazolotriazine derivatives of the present invention were measured in a functional cAMP production assay. The assay consists of NECA stimulation of cAMP production and its inhibition by A2AR antagonists in A2AR-expressing HEK293 cells (hADORA2A-HEK293). All cells were cultured in complete medium at 37° C. in 5% CO2. The cells were detached with pancreatin and collected at 200 g for 5 min. After resuspending the cells in fresh complete medium, the cell viability is counted using the trypan blue exclusion method. […] After the cells were diluted with Hank's buffered saline solution containing HEPES (5 mM), BSA stabilizer (0.1%) and […] Rolipram (10 μM), cells were loaded into white opaque 384-well plates (˜500 cells/well, 10 μl/well) and incubated with test compound at a suitable concentration range (11 concentrations) for 20 min at room temperature. Then the A2A receptor agonist NECA (final concentration=EC80, which was determined in the same experiment slightly earlier) was added to the sample and the mixture was incubated again for 30 min at 37° C. […] The inhibition rate (%) was calculated according to the following formula. The IC50 values were calculated from concentration−inhibition (%) curves after log transformation.
A general note: Changes in cAMP serve as a functional read-out for many G protein-coupled receptors.

Results on 13 compounds are retold here after patent publication US11858942B2, “Triazolotriazine derivatives as A2A receptor antagonists” (ZHEJIANG VIMGREEN PHARMACEUTICALS, LTD., priority 2018, dated 2024).

T1 sequence (P29274 whole entry): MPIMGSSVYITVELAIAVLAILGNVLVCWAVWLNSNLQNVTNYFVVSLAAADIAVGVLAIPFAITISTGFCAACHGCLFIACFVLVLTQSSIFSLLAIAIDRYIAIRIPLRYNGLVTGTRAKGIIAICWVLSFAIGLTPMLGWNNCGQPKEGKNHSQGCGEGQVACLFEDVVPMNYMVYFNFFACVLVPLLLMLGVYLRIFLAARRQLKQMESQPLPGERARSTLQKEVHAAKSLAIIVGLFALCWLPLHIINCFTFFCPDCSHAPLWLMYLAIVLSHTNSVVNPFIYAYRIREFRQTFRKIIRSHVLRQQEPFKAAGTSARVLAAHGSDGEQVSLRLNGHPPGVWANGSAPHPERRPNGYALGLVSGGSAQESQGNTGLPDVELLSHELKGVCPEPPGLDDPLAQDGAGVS

For the compound `Nc1nc(NCCc2ccc(C(=O)NCCN3CCCC3)cc2)nc2nc(-c3ccco3)nn12` [Example 11, 4-(2-((7-Amino-2-(furan-2-yl)-[1,2,4]triazolo[1,5-a][1,3,5]triazin-5-yl)amino)ethyl)-N-(2-(pyrrolidin-1-yl)ethyl)benzamide], the IC50 was 43.4 nM.
`Nc1nc(NCCc2ccc(C(=O)NCCN3CCOCC3)cc2)nc2nc(-c3ccco3)nn12` [Example 12, 4-(2-((7-Amino-2-(furan-2-yl)-[1,2,4]triazolo[1,5-a][1,3,5]triazin-5-yl)amino)ethyl)-N-(2-morpholinoethyl)benzamide]: the IC50 turned out to be 27.1 nM.
`CN1CCN(CCNC(=O)c2ccc(CCNc3nc(N)n4nc(-c5ccco5)nc4n3)cc2)CC1` [Example 13, 4-(2-((7-Amino-2-(furan-2-yl)-[1,2,4]triazolo[1,5-a][1,3,5]triazin-5-yl)amino)ethyl)-N-(2-(4-methylpiperazin-1-yl)ethyl)benzamide]: the IC50 worked out at 33 nM.
Consider `Nc1nc(NCCc2ccc(C(=O)N3CCC(F)(F)CC3)cc2)nc2nc(-c3ccco3)nn12` [Example 16, (4-(2-((7-Amino-2-(furan-2-yl)-[1,2,4]triazolo[1,5-a][1,3,5]triazin-5-yl)amino)ethyl)phenyl)-(4,4-difluoropiperidin-1-yl)methanone], for which the IC50 came to 24 nM.
Turning to `Nc1nc(NCCc2ccc(C(=O)N3CCC(F)CC3)cc2)nc2nc(-c3ccco3)nn12` [Example 17, (4-(2-((7-Amino-2-(furan-2-yl)-[1,2,4]triazolo[1,5-a][1,3,5]triazin-5-yl)amino)ethyl)phenyl)-(4-fluoropiperidin-1-yl)methanone], the IC50 came out at 7.54 nM.
On to `Nc1nc(NCCc2ccc3cnccc3c2)nc2nc(-c3ccco3)nn12` [Example 27, 2-(Furan-2-yl)-N5-(2-(isoquinolin-6-yl)ethyl)-[1,2,4]triazolo[1,5-a][1,3,5]triazine-5,7-diaminee], for which the IC50 stood at 9.08 nM.
With `CNC(=O)c1ccc(CCNc2nc(N)n3nc(-c4ccco4)nc3n2)cc1` [Example 35, 4-(2-(7-Amino-2-(furan-2-yl)-[1,2,4]triazolo[1,5-a][1,3,5]triazin-5-ylamino)ethyl)-N-methylbenzamide], the IC50 was found to be 13.8 nM.
Take `NC(=O)c1ccc(CCNc2nc(N)n3nc(-c4ccco4)nc3n2)cc1` [Example 36, 4-(2-(7-Amino-2-(furan-2-yl)-[1,2,4]triazolo[1,5-a][1,3,5]triazin-5-ylamino)ethyl)benzamide]: the IC50 came to 13.3 nM.
In the case of `Nc1nc(NCCc2ccc(C(=O)N3CCCCC3)cc2)nc2nc(-c3ccco3)nn12` [Example 37, (4-(2-(7-Amino-2-(furan-2-yl)-[1,2,4]triazolo[1,5-a][1,3,5]triazin-5-ylamino)ethyl)-phenyl)(piperidin-1-yl)methanone], the IC50 turned out to be 6 nM.
The figure for `CC(C)N(C)C(=O)c1ccc(CCNc2nc(N)n3nc(-c4ccco4)nc3n2)cc1` [Example 42, 4-(2-(7-Amino-2-(furan-2-yl)-[1,2,4]triazolo[1,5-a][1,3,5]triazin-5-ylamino)ethyl)-N-isopropyl-N-methylbenzamide] is 19.3 nM; for `CC(C)(CO)NC(=O)c1ccc(CCNc2nc(N)n3nc(-c4ccco4)nc3n2)cc1` [Example 43, 4-(2-(7-Amino-2-(furan-2-yl)-[1,2,4]triazolo[1,5-a][1,3,5]triazin-5-ylamino)ethyl)-N-(1-hydroxy-2-methylpropan-2-yl)benzamide] it is 17.1 nM; for `Nc1nc(NCCc2ccc(C(=O)N3CCc4ncccc4C3)cc2)nc2nc(-c3ccco3)nn12` [Example 45, (4-(2-(7-Amino-2-(furan-2-yl)-[1,2,4]triazolo[1,5-a][1,3,5]triazin-5-ylamino)ethyl)phenyl)-(7,8-dihydro-1,6-naphthyridin-6(5H)-yl)methanone] it is 27.4 nM.
The figure for `Nc1nc(NCCc2ccc(-c3nn[nH]n3)cc2)nc2nc(-c3ccco3)nn12` [Example 125, N5-(4-(2H-Tetrazol-5-yl)phenethyl)-2-(furan-2-yl)-[1,2,4]triazolo[1,5-a][1,3,5]triazine-5,7-diamine] is 14.5 nM.
